Where only a bound is given, the exact number is not on record here.

For the experiment, the target named is MAPK14 (human) (UniProt Q16539). Kind of experiment: Inhibition of MAPK14 Kinase Activity.
Chain of MAPK14 (human) (Q16539 whole entry, looked up): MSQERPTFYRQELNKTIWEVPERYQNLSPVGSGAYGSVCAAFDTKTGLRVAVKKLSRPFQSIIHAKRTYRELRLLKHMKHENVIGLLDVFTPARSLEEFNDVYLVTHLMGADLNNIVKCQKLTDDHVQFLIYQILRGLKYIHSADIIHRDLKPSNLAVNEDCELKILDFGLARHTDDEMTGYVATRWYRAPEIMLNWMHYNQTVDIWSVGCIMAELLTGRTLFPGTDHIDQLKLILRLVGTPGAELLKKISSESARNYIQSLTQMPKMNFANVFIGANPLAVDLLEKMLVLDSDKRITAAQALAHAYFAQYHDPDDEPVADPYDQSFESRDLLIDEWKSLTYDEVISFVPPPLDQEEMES
Take `CC(=O)N1CCC(Nc2cc(Cl)c(N3CC(Cc4ccc(F)cc4F)CCC3=O)c(Cl)c2)CC1` (centres undefined): the IC50 was at most 10 µM. In the case of `O=C1CCC(Cc2ccc(F)cc2F)CN1c1c(Cl)cc(CO)cc1Cl` (centres undefined) it was at most 10 µM; in that of `O=C1CCC(Oc2cccc3ccccc23)CN1C1C(Cl)CCCC1Cl` (centres undefined), at most 10 µM; in that of `O=C1CCC(Cc2ccccc2)CN1c1ccccc1Cl` (centres undefined), at most 10 µM.

In the case of `Cc1cc(C)cc(SC2CCC(=O)N(c3c(Cl)cccc3Cl)C2)c1` (centres undefined), the IC50 is at most 10 µM. The compound `C[C@@H]1C[C@H](Cc2ccc(F)cc2F)CN(c2c(Cl)cccc2Cl)C1=O` showed an IC50 of at most 10 µM. Compound `O=C1CCC(Sc2cccc3ccccc23)CN1c1c(Cl)csc1Cl` (centres undefined) gave an IC50 of at most 10 µM.

Compound `Cc1ccccc1OC1CCC(=O)N(c2c(Cl)cccc2Cl)C1` (centres undefined) returned an IC50 of at most 10 µM. On to `O=C1NCC(Cc2ccc(F)cc2F)CN1c1c(Cl)cccc1Cl` (centres undefined), for which the IC50 was at most 10 µM. Consider `O=C1COC(Cc2ccc(F)cc2)CN1c1c(Cl)cccc1Cl` (centres undefined), for which the IC50 is at most 10 µM. The result for `O=C1CCC(Cc2ccc(Cl)cc2Cl)CN1c1c(Cl)csc1Cl` (centres undefined) reads at most 10 µM; that for `COc1ccccc1OC1CCC(=O)N(c2c(Cl)csc2Cl)C1` (centres undefined), at most 10 µM; that for `Cc1cccc(C)c1N1C[C@H](Cc2ccc(F)cc2F)C[C@@H](C)C1=O`, at most 10 µM. In turn, `CNc1cc(Cl)c(N2CC(Sc3ccc(F)cc3F)CCC2=O)c(Cl)c1` (centres undefined) returned an IC50 of at most 10 µM. The result for `Cc1cc(C)cc(CC2CCC(=O)N(C3C(Cl)CCCC3Cl)C2)c1` (centres undefined) reads at most 10 µM; that for `O=C1CCC(Oc2ccccc2F)CN1c1c(Cl)ccnc1Cl` (centres undefined), at most 10 µM. For `O=C1CCC(Sc2ccccc2F)CN1c1c(Cl)ccnc1Cl` (centres undefined), the IC50 was at most 10 µM.

The compound `O=C1CC/C(=C\c2ccc(F)cc2F)CN1c1c(Cl)cccc1Cl` came in with an IC50 of at most 10 µM. The result for `Nc1cc(Cl)c(N2CC(Oc3ccc(F)cc3F)CCC2=O)c(Cl)n1` (centres undefined) reads at most 10 µM; that for `O=C1CCC(C(O)c2cccs2)CN1c1c(Cl)cc(Br)cc1Cl` (centres undefined), at most 10 µM. Turning to `O=C1CCC(Sc2ccc(F)cc2F)CN1c1c(Cl)sc(O)c1Cl` (centres undefined), the 50% inhibitory concentration (IC50) is at most 10 µM. Consider `O=C1SCC(Cc2cc(Cl)cc(Cl)c2)CN1c1c(Cl)cccc1Cl` (centres undefined), for which the IC50 is at most 10 µM. In turn, `CCOC(=O)CCCNC(=O)c1cc(C)c(N2CC(Cc3ccc(F)cc3F)CCC2=O)c(C)c1` (centres undefined) came in with a 50% inhibitory concentration (IC50) of at most 10 µM.

The compound `O=C1COC(Cc2cccc3ccccc23)CN1c1c(Cl)cccc1Cl` (centres undefined) showed an IC50 of at most 10 µM. `Cc1cccc(C)c1N1CC(Cc2ccccc2O)CCC1=O` (centres undefined) displayed an IC50 of at most 10 µM. In turn, `Cc1ccccc1SC1CCC(=O)N(C2C(Cl)CCCC2Cl)C1` (centres undefined) had an IC50 of at most 10 µM. The result for `O=C1CCC(Cc2cccc3ccccc23)CN1c1c(Cl)ccnc1Cl` (centres undefined) reads at most 10 µM; that for `CC(=O)Nc1sc(Cl)c(N2CC(Oc3ccc(F)cc3F)CCC2=O)c1Cl` (centres undefined), at most 10 µM; that for `Cc1ccc(CC2CN(c3c(Cl)cccc3Cl)C(=O)CS2)c(C)c1` (centres undefined), at most 10 µM. Take `O=C(Cc1ccccc1)NC1CC(Cl)C(N2CC(Sc3ccc(F)cc3F)CCC2=O)C(Cl)C1` (centres undefined): the IC50 was at most 10 µM. As to `O=C1CCC(Cc2ccc(F)cc2F)CN1c1c(Cl)cc(N2C(=O)CCC2=O)cc1Cl` (centres undefined), the IC50 was at most 10 µM. Turning to `Cc1cc(C#CCCOC2CCCCO2)cc(C)c1N1CC(Cc2ccc(F)cc2F)CCC1=O` (centres undefined), the IC50 was at most 10 µM.

`O=C1CCC(Cc2ccc3ccccc3c2)CN1c1c(Cl)csc1Cl` (centres undefined) gave an IC50 of at most 10 µM. The compound `CCNC(=O)Nc1cc(Cl)c(N2CC(Cc3ccc(F)cc3F)CCC2=O)c(Cl)c1` (centres undefined) gave an IC50 of at most 10 µM. `O=C1SCC(Cc2ccc(F)cc2F)CN1c1c(Cl)cc(CO)cc1Cl` (centres undefined) displayed an IC50 of at most 10 µM. The compound `Cc1cc(C#CCCO)cc(C)c1N1CC(Cc2ccc(F)cc2F)CCC1=O` (centres undefined) yielded an IC50 of at most 10 µM.

In turn, `CN(C(=O)Cc1ccccc1)c1cc(Cl)c(N2CC(Cc3ccc(F)cc3F)CCC2=O)c(Cl)c1` (centres undefined) had an IC50 of at most 10 µM.

Turning to `CNc1ncc(Cl)c(N2CC(Oc3ccc(F)cc3F)CCC2=O)c1Cl` (centres undefined), the IC50 was at most 10 µM.

In the case of `Cc1ccc(SC2CCC(=O)N(c3c(Cl)csc3Cl)C2)c(C)c1` (centres undefined), the IC50 is at most 10 µM.

The values are drawn from the Kinase Knowledgebase extract (Sharma et al. 2016).
